From ChEMBL document CHEMBL1201862, “PubChem BioAssay data set” (2004)
Calls of active or inactive are those of the source. Cut-off read from the data, not from the text of the source: actives have a measured IC50 and inactives only a lower limit.

Molecular target: Envelope glycoprotein gp160 (Human immunodeficiency virus 1, UniProt Q6QLK5)
Experiment: cell-free HIV fusion peptide-binding blockers – biochemical, uHTS, fluorescence dequenching, […] (AID 1986)

Chain of Envelope glycoprotein gp160 (Q6QLK5 whole entry, the tested form may be a part): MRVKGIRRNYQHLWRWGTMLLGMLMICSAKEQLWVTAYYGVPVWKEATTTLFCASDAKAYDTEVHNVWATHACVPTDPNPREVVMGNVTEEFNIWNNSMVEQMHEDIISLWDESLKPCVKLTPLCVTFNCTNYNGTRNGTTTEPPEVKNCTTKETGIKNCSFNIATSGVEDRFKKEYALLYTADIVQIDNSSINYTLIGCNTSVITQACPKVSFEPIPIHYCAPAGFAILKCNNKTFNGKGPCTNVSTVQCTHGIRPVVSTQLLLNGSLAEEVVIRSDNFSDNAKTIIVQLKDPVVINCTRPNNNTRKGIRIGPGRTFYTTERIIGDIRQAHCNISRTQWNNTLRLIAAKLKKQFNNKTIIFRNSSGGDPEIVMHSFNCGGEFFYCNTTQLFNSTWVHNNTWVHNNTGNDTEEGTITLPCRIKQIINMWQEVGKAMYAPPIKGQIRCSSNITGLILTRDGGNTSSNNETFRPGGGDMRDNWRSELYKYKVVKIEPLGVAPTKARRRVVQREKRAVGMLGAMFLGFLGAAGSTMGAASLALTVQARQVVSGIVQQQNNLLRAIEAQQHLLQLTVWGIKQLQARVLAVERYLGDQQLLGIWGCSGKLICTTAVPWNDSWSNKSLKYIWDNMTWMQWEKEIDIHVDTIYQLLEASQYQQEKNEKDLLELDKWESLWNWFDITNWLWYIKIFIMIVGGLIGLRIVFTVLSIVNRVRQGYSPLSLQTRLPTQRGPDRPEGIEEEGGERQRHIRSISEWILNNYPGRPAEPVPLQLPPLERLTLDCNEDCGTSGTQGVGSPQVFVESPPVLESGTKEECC

## CCOC(=O)C1=C(C)N=c2s/c(=C\c3ccc(OCC(=O)O)c(OC)c3)c(=O)n2C1c1ccc(OC)cc1 (stereo unspecified)
  IC50: 23.9 µM (active)
